Here are results for 45 compounds from PMC4890880 (ACS infectious diseases, 2016).

Molecules are shown by their SMILES. Like-named read-outs stand apart in the source and are kept apart here.

The subject of data set [1] is HepG2-A16-CD81EGFP cells. In words: cells. The settings on record: Homo sapiens, HepG2, read-out: % inhibition.
Data set [2] concerns Plasmodium berghei (Pb-Luc) exoerythrocytic-stage parasites. In words: microbe, parasite or virus in culture.
For data set [3], the system named is HepG2-A16-CD81EGFP cells. The settings on record: human, 50 uM.
[4] abbreviates: read-out: Inhibition% @ 50 uM rep1.
Where [5] appears, read: read-out: Inhibition% @ 50 uM rep2.

`CCn1c2c(c(=N)c3c1CCC3)CCCC2` [MMV000340]: the inhibition at 50 µM turned out to be 75.3% in data set [1], 102% in data set [2] (setting [4]) and 102% in data set [2] (setting [5]).

As for `CCOc1ccc2c(c1)CN(Cc1ccc(Cl)cc1)CO2` [MMV000443], the inhibition at 50 µM in data set [1] came to 95.5%; in data set [2] (setting [4]) it was 102%; in data set [2] (setting [5]), 104%.

Take `COc1ccc(-c2cc(=O)oc3c4c(ccc23)OCN(Cc2ccc(F)cc2)C4)cc1` [MMV000604]: the inhibition at 50 µM was 57.1% in data set [1], 100% in data set [2] (setting [4]) and 101% in data set [2] (setting [5]).

In the case of `COc1ccc(C(O)(CCC(C)C)C(CN2CCOCC2)c2ccc(Cl)cc2)cc1` (stereo not shown) [MMV000617], the inhibition at 50 µM in data set [1] was 98.4%; in data set [2] (setting [4]) it was 103%; in data set [2] (setting [5]), 103%.

Turning to `CCCCCCC(O)(c1ccc(F)cc1)C(CN1CCOCC1)c1ccccc1` (stereo not shown) [MMV000621], the inhibition at 50 µM in data set [1] came to 98.1%; in data set [2] (setting [4]), 104%; in data set [2] (setting [5]) it was 103%.

On to `COc1ccc2sc(N(Cc3cccnc3)C(=O)c3ccc(C#N)cc3)nc2c1` [MMV001239], for which the inhibition at 50 µM in data set [1] worked out at 63.2%; in data set [2] (setting [4]), 73%; in data set [2] (setting [5]) it was 85%.

As to `O=C1c2ccccc2C2=Nc3ccccc3SC(c3cccc(F)c3)C12` (stereo not shown) [MMV006389], the inhibition at 50 µM in data set [1] is 96.2%; in data set [2] (setting [4]), 102%; in data set [2] (setting [5]), 103%.

For the compound `CCOc1ccc2nc(C)cc(Nc3ccc(Br)cc3)c2c1` [MMV006522], the values for the inhibition at 50 µM in data set [1], in data set [2] (setting [4]) and in data set [2] (setting [5]) were 98.8%, 102% and 104%, respectively.

Consider `CCOc1c(Br)cc(C2C(C(=O)OC)=CN(C)C=C2C(=O)OC)cc1OC` [MMV006764], for which the figures for the inhibition at 50 µM in data set [1], in data set [2] (setting [4]) and in data set [2] (setting [5]) were 31.2%, 103% and 103%, respectively.

Turning to `OC1=C2C(=Nc3ccccc3SC2c2ccc(Br)cc2)c2ccccc21` (stereo not shown) [MMV007127], the inhibition at 50 µM was 64.3% in data set [1], 103% in data set [2] (setting [4]) and 103% in data set [2] (setting [5]).

For the compound `COc1ccc(OC)c(C2C3=C(CC(C)(C)CC3=O)N(c3ccc(Cl)c(Cl)c3)C3=C2C(=O)CC(C)(C)C3)c1` [MMV007208], the inhibition at 50 µM in data set [1] is -4.26%; in data set [2] (setting [4]) it was -11%; in data set [2] (setting [5]) it was -11%.

Turning to `Cc1cccc(N2C(=O)C3C(C2=O)C2(c4ccccc4)C(=O)C3(c3ccccc3)C(c3ccc4c(c3)OCO4)=C2c2ccc3c(c2)OCO3)c1` (stereo not shown) [MMV007228], the inhibition at 50 µM is -4.28% in data set [1], 57% in data set [2] (setting [4]) and 57% in data set [2] (setting [5]).

`Clc1ccc2c(N3CCCC3)ccnc2c1` [MMV007363]: the results for the inhibition at 50 µM in data set [1], in data set [2] (setting [4]) and in data set [2] (setting [5]) were 39.1%, 91% and 94%, respectively.

On to `Cc1ccccc1OCCSc1nc2ccc(NC(=O)c3cccs3)cc2s1` [MMV007396], for which the inhibition at 50 µM in data set [1] was found to be 37.1%; in data set [2] (setting [4]) it was 103%; in data set [2] (setting [5]) it was 104%.

As to `COc1cc2c3cc1Oc1c(OC)c(OC)cc4c1C(Cc1ccc(O)c(c1)Oc1ccc(cc1)CC3N(C)CC2)N(C)CC4` (stereo not shown) [MMV007474], the inhibition at 50 µM in data set [1] turned out to be 99.3%; in data set [2] (setting [4]), 104%; in data set [2] (setting [5]), 104%.

For `O=C(Nc1ccc(C23CC4CC(CC(c5ccccc5)(C4)C2)C3)cc1)c1cccs1` [MMV007574], the inhibition at 50 µM in data set [1] is 83.6%; in data set [2] (setting [4]), 103%; in data set [2] (setting [5]) it was 103%.

Turning to `Cc1ccccc1OCCSc1nc2ccc(NC(=O)c3ccccc3)cc2s1` [MMV007577], the inhibition at 50 µM was found to be 67.4% in data set [1], 103% in data set [2] (setting [4]) and 103% in data set [2] (setting [5]).

With `CCCCc1c(CCC)c(=N)c2ccccc2n1C` [MMV007764], the inhibition at 50 µM in data set [1] worked out at 83.9%; in data set [2] (setting [4]), 103%; in data set [2] (setting [5]) it was 103%.

As to `CCOc1ccccc1NC(=O)CN1CCN(C(=O)c2ccco2)CC1` [MMV007791], the inhibition at 50 µM in data set [1] is -15%; in data set [2] (setting [4]) it was 16%; in data set [2] (setting [5]), 43%.

Regarding `CCCCN(CCCC)S(=O)(=O)c1ccc(NC(=O)c2ccco2)cc1` [MMV007881], the inhibition at 50 µM was 94.7% in data set [1], 98% in data set [2] (setting [4]) and 99% in data set [2] (setting [5]).

On to `CN1C=C(c2ccc3ccccc3n2)C(c2c[nH]c3ccccc23)c2ccccc21` (stereo not shown) [MMV008160], for which the inhibition at 50 µM in data set [1] was determined as 91.2%; in data set [2] (setting [4]) it was 103%; in data set [2] (setting [5]) it was 104%.

With `COc1cc(OC)cc(N2C(=O)N(Cc3ccc(C(C)(C)C)cc3)c3ccccc3S2(=O)=O)c1` [MMV008173], the figures for the inhibition at 50 µM in data set [1], in data set [2] (setting [4]) and in data set [2] (setting [5]) were -9.98%, 78% and 88%, respectively.

Turning to `COc1ccc(C2C(C(=O)Nc3cccc(OC)c3)c3ccccc3C(=O)N2C2CCCCC2)cc1` (stereo not shown) [MMV008455], the inhibition at 50 µM was determined as 28% in data set [1], 94% in data set [2] (setting [4]) and 92% in data set [2] (setting [5]).

On to `CCCn1c(=N)c(C(=O)NC2CCCCC2)cc2c(=O)n3cccc(C)c3nc21` [MMV008829], for which the inhibition at 50 µM was -21% in data set [1], 54% in data set [2] (setting [4]) and 45% in data set [2] (setting [5]).

As for `CC1CCN(Cc2c(O)ccc3cc(-c4nc5ccccc5s4)c(=O)oc23)CC1` [MMV009127], the values for the inhibition at 50 µM in data set [1], in data set [2] (setting [4]) and in data set [2] (setting [5]) were -10.1%, 75% and 76%, respectively.

In the case of `COc1cccc(Nc2nc(N)c3ccccc3n2)c1` [MMV019199], the inhibition at 50 µM amounted to 88.3% in data set [1], 98% in data set [2] (setting [4]) and 99% in data set [2] (setting [5]).

`COc1ccc(-c2cn3c(C(=O)Nc4ccccc4Cl)c(-c4ccccc4)c4c3n2CCCC4)cc1` [MMV020403]: the inhibition at 50 µM was 52.5% in data set [1], 102% in data set [2] (setting [4]) and 103% in data set [2] (setting [5]).

With `Nc1nc(Nc2cccc(F)c2)nc2ccccc12` [MMV080034], the inhibition at 50 µM in data set [1] came to 81.8%; in data set [2] (setting [4]), 102%; in data set [2] (setting [5]) it was 103%.

As to `Cc1cc(N2CCCC2)nc(Nc2ccc(NC(=O)CCc3ccccc3)cc2)n1` [MMV396669], the results for the inhibition at 50 µM in data set [1], in data set [2] (setting [4]) and in data set [2] (setting [5]) were 96.9%, 103% and 103%, respectively.

Consider `N=c1n(CCN2CCCCC2)c2ccccc2n1CC(=O)c1ccc(Cl)c(Cl)c1` [MMV396723], for which the inhibition at 50 µM in data set [1] was determined as 96.7%; in data set [2] (setting [4]) it was 101%; in data set [2] (setting [5]), 102%.

Consider `Nc1ccn([C@@H]2O[C@H](CO)[C@@H](O)[C@H]2O)c(=O)n1` [MMV638723], for which the inhibition at 50 µM in data set [1] came to 3.04%; in data set [2] (setting [4]), 30%; in data set [2] (setting [5]), 19%.

In the case of `CCN(CC)CCCNc1ccnc2cc3ccccc3cc12` [MMV665783], the inhibition at 50 µM in data set [1] came to 31.7%; in data set [2] (setting [4]) it was 90%; in data set [2] (setting [5]), 95%.

With `O=c1cc(NC2CCN(CCCc3ccccc3)CC2)c2cc(Cl)ccc2o1` [MMV665786], the inhibition at 50 µM in data set [1] came out at 80.6%; in data set [2] (setting [4]) it was 100%; in data set [2] (setting [5]) it was 103%.

`CCCCOC(=O)c1ccc(Nc2cc(C)nc3ccc(OC)cc23)cc1` [MMV665797]: the inhibition at 50 µM was 95.1% in data set [1], 100% in data set [2] (setting [4]) and 101% in data set [2] (setting [5]).

Take `Oc1ccc(Br)cc1CN1CCN(Cc2ccc(Cl)cc2)CC1` [MMV665809]: the values for the inhibition at 50 µM in data set [1], in data set [2] (setting [4]) and in data set [2] (setting [5]) were 93.9%, 103% and 103%, respectively.

With `O=C(Nc1cccc(C2=NCCN2)c1)Nc1cccc(C2=NCCN2)c1` [MMV665810], the inhibition at 50 µM in data set [1] came to 48.2%; in data set [2] (setting [4]), 61%; in data set [2] (setting [5]) it was 83%.

Take `CCc1ccc(CNCC(O)c2ccccc2)cc1` (stereo not shown) [MMV665812]: the inhibition at 50 µM turned out to be 94.8% in data set [1], 98% in data set [2] (setting [4]) and 99% in data set [2] (setting [5]).

As to `CCOC(=O)c1cnc2ccc(OC)cc2c1NCc1ccccc1` [MMV665813], the “HepG2 Tox% @ 50 uM rep1” value in data set [3] is on record as 102%. Moreover, the inhibition at 50 µM in data set [2] (setting [4]) was found to be 103%; in data set [2] (setting [5]), 104%.

Consider `OC(CNC1CCCCC1)Cn1c2ccc(I)cc2c2cc(I)ccc21` (stereo not shown) [MMV665882], for which the “HepG2 Tox% @ 50 uM rep1” value in data set [3] was found to be 100%. The inhibition at 50 µM in data set [2] (setting [4]) was determined as 103%; in data set [2] (setting [5]), 104%.

As for `COc1ccc2nc(N)nc(C)c2c1` [MMV665897], the “HepG2 Tox% @ 50 uM rep1” value in data set [3] amounted to 97%. Moreover, the inhibition at 50 µM was determined as 100% in data set [2] (setting [4]) and 101% in data set [2] (setting [5]).

Consider `N=c1n(CCN2CCCCC2)c2ccccc2n1CC(O)c1cccc(Br)c1` (stereo not shown) [MMV665902], for which, in data set [3], the “HepG2 Tox% @ 50 uM rep1” value is 101%. Also, the “HepG2 Tox% @ 50 uM rep2” value in data set [3] turned out to be 102%. In addition, the inhibition at 50 µM in data set [2] (setting [4]) worked out at 104%; in data set [2] (setting [5]), 105%.

On to `FC(F)(F)c1cccc(CNC2CCN(CCc3ccccc3)CC2)c1` [MMV665979], for which, in data set [3], the “HepG2 Tox% @ 50 uM rep1” value stood at 99% and the “HepG2 Tox% @ 50 uM rep2” value came to 99%. In addition, the inhibition at 50 µM in data set [2] (setting [4]) stood at 101%. Also, in data set [2] (setting [5]), the inhibition at 50 µM amounted to 99%.

Consider `COc1ccc(CNC2CCN(c3ccc(NC(=O)c4cccc(Cl)c4)cc3)CC2)cc1OC` [MMV666067], for which, in data set [3], the “HepG2 Tox% @ 50 uM rep1” value is given as 98% and the “HepG2 Tox% @ 50 uM rep2” value is on record as 99%. Besides, in data set [2] (setting [4]), the inhibition at 50 µM turned out to be 102%. For the same compound, in data set [2] (setting [5]), the inhibition at 50 µM was found to be 99%.

`COc1ccc(CCN2CCC(CN(C)Cc3cnn(-c4ccccc4)c3)CC2)cc1` [MMV666069]: in data set [3], the “HepG2 Tox% @ 50 uM rep1” value worked out at 99% and the “HepG2 Tox% @ 50 uM rep2” value was found to be 100%. In data set [2] (setting [4]), the inhibition at 50 µM amounted to 101%. Moreover, in data set [2] (setting [5]), the inhibition at 50 µM was 103%.

As for `COc1ccccc1C(=O)ON=C(N)Cc1cccc2ccccc12` [MMV666686], the “HepG2 Tox% @ 50 uM rep1” value in data set [3] is on record as 101%. The inhibition at 50 µM in data set [2] (setting [4]) and in data set [2] (setting [5]) was 104% throughout.
